# From paper PMC4854315, “Discovery of a novel allosteric inhibitor-binding site in ERK5: comparison with the canonical kinase hinge ATP-binding site” (Acta Crystallographica. Section D, Structural Biology, 2016)
# Legend:
# Assay in all cases: Z'-LYTE kinase panel
# Type in all cases: biochemical
# ADRBK1 (GRK2) = target: T1, ADRBK1 (GRK2) (Homo sapiens, UniProt P25098)
# T1 construct: purchased ThermoFisher (SelectScreen, Z'-LYTE)
# T1 sequence (P25098 1-689): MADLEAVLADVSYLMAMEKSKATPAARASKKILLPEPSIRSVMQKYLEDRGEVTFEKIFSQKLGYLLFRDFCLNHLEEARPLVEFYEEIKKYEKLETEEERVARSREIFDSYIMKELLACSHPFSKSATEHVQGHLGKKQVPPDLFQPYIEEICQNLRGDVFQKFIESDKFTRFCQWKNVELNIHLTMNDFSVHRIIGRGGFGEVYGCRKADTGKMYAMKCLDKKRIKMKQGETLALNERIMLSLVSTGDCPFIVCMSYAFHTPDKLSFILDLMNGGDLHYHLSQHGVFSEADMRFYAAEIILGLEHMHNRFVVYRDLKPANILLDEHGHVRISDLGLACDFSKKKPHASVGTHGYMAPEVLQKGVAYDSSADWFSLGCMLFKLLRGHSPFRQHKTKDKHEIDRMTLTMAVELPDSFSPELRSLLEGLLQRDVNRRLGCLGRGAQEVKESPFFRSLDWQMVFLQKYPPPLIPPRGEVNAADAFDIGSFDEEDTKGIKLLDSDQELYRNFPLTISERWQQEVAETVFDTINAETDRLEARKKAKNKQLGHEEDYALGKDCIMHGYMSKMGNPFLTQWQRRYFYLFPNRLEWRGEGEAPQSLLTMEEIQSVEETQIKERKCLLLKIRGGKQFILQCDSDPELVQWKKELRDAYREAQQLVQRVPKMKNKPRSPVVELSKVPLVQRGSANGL
# Method: (§1) Compounds 2, 3 and 5 were tested for activity against the 225 kinases in the ThermoFisher standard kinase panel. The standard Z′-LYTE assay protocol (ThermoFisher) was used to measure the percentage inhibition at 10 µM compound concentration (details are provided in the supporting information).
# AMPK A1/B1/G1 = target: T2, AMPK A1/B1/G1 (Homo sapiens, UniProt Q13131)
# T2 construct: purchased ThermoFisher (SelectScreen, Z'-LYTE)
# Method: as §1
# EPHB1 = target: T3, EPHB1 (Homo sapiens, UniProt P54762)
# T3 construct: purchased ThermoFisher (SelectScreen, Z'-LYTE)
# T3 sequence (P54762 18-984): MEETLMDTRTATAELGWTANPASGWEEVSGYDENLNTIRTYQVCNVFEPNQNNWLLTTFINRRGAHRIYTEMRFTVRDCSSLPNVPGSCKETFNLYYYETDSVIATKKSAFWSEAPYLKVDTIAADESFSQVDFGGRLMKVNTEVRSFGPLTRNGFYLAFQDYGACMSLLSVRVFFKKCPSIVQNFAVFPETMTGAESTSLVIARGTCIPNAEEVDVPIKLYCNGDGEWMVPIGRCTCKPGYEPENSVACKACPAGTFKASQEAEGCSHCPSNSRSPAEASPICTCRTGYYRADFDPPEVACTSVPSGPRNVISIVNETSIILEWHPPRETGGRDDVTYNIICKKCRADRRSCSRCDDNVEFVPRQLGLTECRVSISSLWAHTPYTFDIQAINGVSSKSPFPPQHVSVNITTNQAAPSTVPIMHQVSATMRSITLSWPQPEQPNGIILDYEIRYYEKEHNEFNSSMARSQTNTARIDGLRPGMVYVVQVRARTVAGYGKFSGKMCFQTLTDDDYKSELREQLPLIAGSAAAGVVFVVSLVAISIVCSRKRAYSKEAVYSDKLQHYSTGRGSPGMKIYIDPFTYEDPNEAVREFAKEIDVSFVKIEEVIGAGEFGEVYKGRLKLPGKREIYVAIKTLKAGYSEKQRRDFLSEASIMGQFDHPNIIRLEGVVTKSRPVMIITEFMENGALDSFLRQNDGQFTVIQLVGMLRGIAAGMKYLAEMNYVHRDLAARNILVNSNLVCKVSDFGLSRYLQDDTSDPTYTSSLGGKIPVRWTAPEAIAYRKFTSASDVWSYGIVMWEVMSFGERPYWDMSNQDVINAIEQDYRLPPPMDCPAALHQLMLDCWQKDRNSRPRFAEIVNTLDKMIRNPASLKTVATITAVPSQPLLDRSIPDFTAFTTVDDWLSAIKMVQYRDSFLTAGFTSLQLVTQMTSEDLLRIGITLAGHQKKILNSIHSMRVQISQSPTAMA
# Method: as §1
# GRK7 = target: T4, GRK7 (Homo sapiens, UniProt Q8WTQ7)
# T4 construct: purchased ThermoFisher (SelectScreen, Z'-LYTE)
# T4 sequence (Q8WTQ7 1-553): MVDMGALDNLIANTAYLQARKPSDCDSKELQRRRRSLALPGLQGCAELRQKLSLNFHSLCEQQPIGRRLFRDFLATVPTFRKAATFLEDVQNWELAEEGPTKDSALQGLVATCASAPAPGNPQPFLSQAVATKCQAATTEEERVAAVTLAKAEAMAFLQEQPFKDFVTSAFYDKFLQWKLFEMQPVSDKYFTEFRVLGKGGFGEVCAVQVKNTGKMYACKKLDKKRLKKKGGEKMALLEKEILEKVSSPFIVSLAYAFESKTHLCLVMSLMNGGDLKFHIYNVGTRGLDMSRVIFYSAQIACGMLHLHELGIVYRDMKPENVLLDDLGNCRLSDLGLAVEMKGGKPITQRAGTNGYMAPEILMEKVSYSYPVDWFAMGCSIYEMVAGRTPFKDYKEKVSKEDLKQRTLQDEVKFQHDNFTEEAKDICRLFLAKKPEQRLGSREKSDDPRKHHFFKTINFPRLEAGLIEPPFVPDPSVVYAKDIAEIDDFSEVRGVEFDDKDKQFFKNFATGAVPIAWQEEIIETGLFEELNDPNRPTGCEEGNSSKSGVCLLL
# Method: as §1
# PRKCQ (PKC theta) = target: T5, PRKCQ (PKC theta) (Homo sapiens, UniProt Q04759)
# T5 construct: purchased ThermoFisher (SelectScreen, Z'-LYTE)
# Method: as §1
# RPS6KA2 (RSK3) = target: T6, RPS6KA2 (RSK3) (Homo sapiens, UniProt Q15349)
# T6 construct: purchased ThermoFisher (SelectScreen, Z'-LYTE)
# Method: as §1
# SRPK2 = target: T7, SRPK2 (Homo sapiens, UniProt P78362)
# T7 construct: purchased ThermoFisher (SelectScreen, Z'-LYTE)
# Method: as §1
# T5 sequence (Q04759 whole entry): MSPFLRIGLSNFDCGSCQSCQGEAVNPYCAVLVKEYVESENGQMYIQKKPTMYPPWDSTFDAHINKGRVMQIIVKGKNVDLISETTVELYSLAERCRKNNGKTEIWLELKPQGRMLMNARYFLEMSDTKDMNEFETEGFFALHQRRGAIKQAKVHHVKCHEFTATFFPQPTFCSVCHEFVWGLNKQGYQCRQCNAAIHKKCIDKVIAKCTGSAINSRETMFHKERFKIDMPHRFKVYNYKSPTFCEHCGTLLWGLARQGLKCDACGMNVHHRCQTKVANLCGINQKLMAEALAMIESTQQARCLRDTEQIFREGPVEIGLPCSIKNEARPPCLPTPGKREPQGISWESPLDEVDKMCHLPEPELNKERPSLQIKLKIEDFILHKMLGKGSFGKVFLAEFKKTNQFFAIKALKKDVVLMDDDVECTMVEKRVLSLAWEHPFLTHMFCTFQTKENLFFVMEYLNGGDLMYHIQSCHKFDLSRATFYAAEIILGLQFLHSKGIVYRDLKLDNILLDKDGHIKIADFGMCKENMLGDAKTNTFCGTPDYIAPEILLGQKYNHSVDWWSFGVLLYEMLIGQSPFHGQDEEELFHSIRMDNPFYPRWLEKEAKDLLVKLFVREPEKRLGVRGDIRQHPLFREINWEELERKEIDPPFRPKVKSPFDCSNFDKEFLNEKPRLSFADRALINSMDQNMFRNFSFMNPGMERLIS
# T6 sequence (Q15349 whole entry): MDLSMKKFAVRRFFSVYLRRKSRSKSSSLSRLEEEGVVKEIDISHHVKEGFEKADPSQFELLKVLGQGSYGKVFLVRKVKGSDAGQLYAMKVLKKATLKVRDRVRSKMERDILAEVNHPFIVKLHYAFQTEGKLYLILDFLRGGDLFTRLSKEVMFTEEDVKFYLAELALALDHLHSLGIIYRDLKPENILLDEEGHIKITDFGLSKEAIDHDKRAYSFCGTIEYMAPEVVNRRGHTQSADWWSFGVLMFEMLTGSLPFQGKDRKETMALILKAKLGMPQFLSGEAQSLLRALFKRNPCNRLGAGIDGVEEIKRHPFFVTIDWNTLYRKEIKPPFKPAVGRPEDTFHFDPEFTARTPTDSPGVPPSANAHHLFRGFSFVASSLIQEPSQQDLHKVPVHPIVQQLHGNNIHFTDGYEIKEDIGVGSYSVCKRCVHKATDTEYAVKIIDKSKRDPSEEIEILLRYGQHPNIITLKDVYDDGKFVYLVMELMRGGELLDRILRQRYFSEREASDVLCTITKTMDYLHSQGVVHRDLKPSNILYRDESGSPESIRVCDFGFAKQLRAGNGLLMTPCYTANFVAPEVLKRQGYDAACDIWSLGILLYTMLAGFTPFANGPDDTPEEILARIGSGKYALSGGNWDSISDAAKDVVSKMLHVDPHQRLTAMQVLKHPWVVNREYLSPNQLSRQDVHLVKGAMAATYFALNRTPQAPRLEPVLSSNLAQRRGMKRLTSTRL
# T7 sequence (P78362 whole entry): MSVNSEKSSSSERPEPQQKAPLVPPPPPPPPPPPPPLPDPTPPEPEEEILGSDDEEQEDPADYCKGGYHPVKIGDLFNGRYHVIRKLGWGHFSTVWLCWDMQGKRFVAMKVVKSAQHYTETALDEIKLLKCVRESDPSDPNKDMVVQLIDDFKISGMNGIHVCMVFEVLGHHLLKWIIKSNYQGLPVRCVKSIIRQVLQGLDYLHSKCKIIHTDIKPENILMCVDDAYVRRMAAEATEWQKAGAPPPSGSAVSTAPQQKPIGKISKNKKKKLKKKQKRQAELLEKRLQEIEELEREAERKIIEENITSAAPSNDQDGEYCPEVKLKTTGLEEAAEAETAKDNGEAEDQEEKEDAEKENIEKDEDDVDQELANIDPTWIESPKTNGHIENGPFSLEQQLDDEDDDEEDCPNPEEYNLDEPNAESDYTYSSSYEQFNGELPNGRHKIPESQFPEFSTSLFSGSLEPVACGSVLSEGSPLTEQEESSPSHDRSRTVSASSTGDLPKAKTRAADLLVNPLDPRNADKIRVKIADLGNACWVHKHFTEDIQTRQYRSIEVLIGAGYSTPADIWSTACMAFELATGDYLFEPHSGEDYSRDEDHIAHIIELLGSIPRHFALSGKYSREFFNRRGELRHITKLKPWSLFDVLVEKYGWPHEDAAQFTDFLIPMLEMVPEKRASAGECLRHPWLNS
# T2 sequence (Q13131 whole entry): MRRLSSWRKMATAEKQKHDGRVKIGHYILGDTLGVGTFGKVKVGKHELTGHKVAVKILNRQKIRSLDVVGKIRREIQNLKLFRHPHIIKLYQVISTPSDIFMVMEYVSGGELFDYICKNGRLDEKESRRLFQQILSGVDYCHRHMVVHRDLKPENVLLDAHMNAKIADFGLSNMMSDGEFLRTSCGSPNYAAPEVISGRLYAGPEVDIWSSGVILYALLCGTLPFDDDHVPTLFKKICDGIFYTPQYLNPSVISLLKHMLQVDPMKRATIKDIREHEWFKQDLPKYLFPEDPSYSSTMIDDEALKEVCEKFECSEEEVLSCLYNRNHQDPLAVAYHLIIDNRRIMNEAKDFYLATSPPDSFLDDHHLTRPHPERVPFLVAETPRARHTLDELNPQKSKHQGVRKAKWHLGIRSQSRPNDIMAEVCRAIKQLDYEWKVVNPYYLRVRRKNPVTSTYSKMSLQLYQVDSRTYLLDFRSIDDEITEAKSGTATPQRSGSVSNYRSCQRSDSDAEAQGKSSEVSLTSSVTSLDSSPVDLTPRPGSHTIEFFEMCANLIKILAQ
# T2 sequence (Q9Y478 whole entry partner): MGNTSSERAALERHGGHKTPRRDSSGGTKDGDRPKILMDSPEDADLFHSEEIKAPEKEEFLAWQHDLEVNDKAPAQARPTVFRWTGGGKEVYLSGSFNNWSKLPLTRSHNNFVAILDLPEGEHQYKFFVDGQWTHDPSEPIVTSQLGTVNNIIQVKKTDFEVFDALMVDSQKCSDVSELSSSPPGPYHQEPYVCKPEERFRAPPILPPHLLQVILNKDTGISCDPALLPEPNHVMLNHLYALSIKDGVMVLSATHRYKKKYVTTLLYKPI
# T2 sequence (P54619 whole entry partner): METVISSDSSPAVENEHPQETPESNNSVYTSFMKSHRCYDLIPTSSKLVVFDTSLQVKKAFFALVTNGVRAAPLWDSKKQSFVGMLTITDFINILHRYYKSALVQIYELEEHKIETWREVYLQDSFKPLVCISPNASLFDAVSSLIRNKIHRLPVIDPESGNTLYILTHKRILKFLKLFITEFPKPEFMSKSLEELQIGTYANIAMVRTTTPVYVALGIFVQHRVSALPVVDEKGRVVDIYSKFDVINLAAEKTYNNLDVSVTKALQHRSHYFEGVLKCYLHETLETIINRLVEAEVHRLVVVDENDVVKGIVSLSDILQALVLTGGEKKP
Molecule,inhibition at 10 µM (ADRBK1 (GRK2)) [%],inhibition at 10 µM (AMPK A1/B1/G1) [%],inhibition at 10 µM (EPHB1) [%],inhibition at 10 µM (GRK7) [%],inhibition at 10 µM (PRKCQ (PKC theta)) [%],inhibition at 10 µM (RPS6KA2 (RSK3)) [%],inhibition at 10 µM (SRPK2) [%],"ADRBK1 (GRK2) % Inhibition (ADRBK1 (GRK2); 10 µM compound, ATP Km app) [%]","AMPK A1/B1/G1 % Inhibition (AMPK A1/B1/G1; 10 µM compound, ATP Km app) [%]","EPHB1 % Inhibition (EPHB1; 10 µM compound, ATP Km app) [%]","GRK7 % Inhibition (GRK7; 10 µM compound, ATP Km app) [%]","PRKCQ (PKC theta) % Inhibition (PRKCQ (PKC theta); 10 µM compound, ATP Km app) [%]","RPS6KA2 (RSK3) % Inhibition (RPS6KA2 (RSK3); 10 µM compound, ATP Km app) [%]","SRPK2 % Inhibition (SRPK2; 10 µM compound, ATP Km app) [%]"
Cc1cc(Nc2nc(N)nn2C(=O)NC(C)C)ccc1Cl [Compound 5],-0.227,23,7.51,10,-8,70,-5,–,–,–,–,–,–,–
Cc1ncc(-c2nc(Nc3ccc(C(=O)NCCN4CCCCC4)cc3)ncc2F)n1C(C)C [Compound 3],17,95,94,40,80,90,25,–,–,–,–,–,–,–
"XMD8-92 [Compound 2, reference compound]",–,–,–,–,–,–,–,-1,55,5.39,39,52,23,-19
